Here are results for six compounds from patent publication US20250250268A1 (SHANGHAI HAOYUAN MEDCHEMEXPRESS CO., LTD., priority 2022, published 2025).

Data set [1] can be described thus: Stability tests of crystal forms under accelerated and low-temperature storage (XRPD, HPLC). The note with it: for Polymorphic changes on storage (XRPD): accelerated test conditions (40° C., 75% RH) and low-temperature storage conditions (−20° C.). The format is physicochemical.
The test system of a further data set is microglia. The data set is described as follows: Pharmacological animal experiment: microglia clearance in mice fed PLX5622 crystal forms (IBA1 staining, Image j counting). The format is in vivo, C57BL/6J mice. Particulars: for 7-day clearance rate / 14-day clearance rate / 7-day number of cells / 14-day number of cells: C57BL/6J mice, in AIN-76A food; for 7-day clearance rate / 14-day clearance rate: administration every other day, average clearance rate of microglia; for 7-day clearance rate / 7-day number of cells: 7 days; for 14-day clearance rate / 14-day number of cells: 14 days; for 7-day number of cells / 14-day number of cells: average statistical number of microglia (total number in brains); for Microglia clearance rate compared with Form A: 7-day or 14-day clearance rate, mice. Here is the method: Mice were adaptively fed for 3-6 days upon arrival in the mouse room, with AIN-76A food. Group A was administered PLX5622 compound Form A, and Group B was administered PLX5622 compound Form B.
Formal administration: Administration was conducted every other day, on days 1, 3, 5, 7, 9, 11, and 13. Each time of administration required weighing, and the amount was adjusted to 4 g per mouse (actual consumption around 3 g per mouse).
After anesthesia, mice were immobilized using tape or needles/pins, and the fur on the lateral thorax was lifted with forceps. The skin was then cut with scissors to expose the white sternum. The diaphragm was carefully incised with fine scissors, taking care not to damage the above heart.
A small incision was made on the right atrium. The heart was fixed with forceps, and an injection needle was inserted into the left ventricle from the apex of the heart at an angle roughly parallel to the left-right midline of the heart.
Sucrose gradient dehydration: The mouse brains were fixed in 4% paraformaldehyde overnight and then dehydrated with 20% sucrose solution until the material sank to the bottom, followed by dehydration with 30% sucrose solution until the material sank to the bottom. Embedding and sectioning: get 25-40 μm sections, which are the tissues that need to be stained.
• 1. After washing the sections, blocking was initiated with 5% BSA in PBST for 2 hours. • 2. Incubation with the primary antibody, IBA1 (1:500) in 1% BSA in PBST, at 4° C. for at least 14 hours. • 3. Incubation with Alexa Fluor-conjugated secondary antibody (1:500) in 1% BSA in PBST, at room temperature for 2 hours. • 4. Washed with PBS 3-5 times for 10 minutes each, stained with DAPI, followed by addition of anti-fade reagent, dried overnight, and then photographed and scanned for analysis.
Image j counting: All microglia with complete morphology need to be counted.
Among them, the mice are all 3-month-old male mice; the clearance rates are the average clearance rate and the average statistical number of microglia (total number in brains).

The nature of data set [2]: Drying transformation relationship of Form A-F (vacuum drying, XRPD). The note with it: for Description / XRPD results: 60-80° C. vacuum drying; for Stability / conversion of crystal form on drying: dried at high temperatures, solvent removed.
Data set [3] is described as follows: Pharmacokinetic determination in rats (feed administration, plasma and brain). Particulars: 1200 ppm in AIN-76A standard feed, 7-day and 14-day groups, Cmax and AUC. The class given is in vivo. The text has this:
Plasma or brain samples from the 2 groups were collected for pharmacokinetic (PK) parameter analysis. For the 7-day group, plasma samples were collected on day 1, day 3, and day 7; after the rats were euthanized on day 7, brain tissue samples were collected. For the […], plasma samples were collected from rats on day 10 and 14; on day 14, the mice were euthanized, and brain tissue samples were collected.
For the processing of plasma samples, rats were anesthetized on days 1, 3, 7 and 10 and 14, and approximately 150 μL of blood was collected via cardiac puncture into anticoagulant centrifuge tubes containing K 2 EDTA. Within 15 minutes of sampling, plasma was obtained by centrifugation at 2000 g for 5 minutes at 4° C. and stored at below −60° C. until analysis. For the processing of brain tissue samples, the rats were euthanized on day 7 and 14, and then the brain tissue was collected. The residual blood on the surface of the tissue was washed away with normal saline, dried with filter paper, weighed, and frozen in dry ice, then store in a refrigerator below −60° C. until sample analysis. Pharmacokinetic (PK) parameters Cmax and AUC were calculated based on a non-compartmental model using WinNonlin 8.2 software. Drug concentrations in mouse plasma and brain tissue were determined.

Entries after “also recorded” stand apart in the source; their conditions may differ.

Consider `COc1ncc(F)cc1CNc1ccc(Cc2c[nH]c3ncc(C)cc23)c(F)n1` [Form A, 6-Fluoro-N-((5-fluoro-2-methoxypyridin-3-yl)methyl)-5-((5-methyl-1H-pyrrolo[2,3-b]pyridin-3-yl)methyl) pyridin-2-amine], for which, in data set [1] (40° C./75% RH, 5 Days), the “Individual Impurity (RRT/%) RRT = 0.33” value came out at 0.06%, the “Individual Impurity (RRT/%) RRT = 1.50” value amounted to 0.04%, the “Purity (by HPLC %)” value was 99.90% and the XRPD result is recorded as “Form A”. Also, in data set [1] (40° C./75% RH, 10 Days), the “Individual Impurity (RRT/%) RRT = 0.33” value amounted to 0.06%, the “Individual Impurity (RRT/%) RRT = 1.50” value came to 0.04%, the “Purity (by HPLC %)” value came out at 99.90% and the XRPD result is reported as “Form A”. Besides, in data set [1] (Initial, 0 Day), the “Individual Impurity (RRT/%) RRT = 0.33” value is listed as 0.06%, the “Individual Impurity (RRT/%) RRT = 1.50” value came to 0.04%, the “Purity (by HPLC %)” value is reported as 99.90% and the XRPD entry is given as “Form A”. In addition, the “Polymorphic changes on storage (XRPD)” value in data set [1] is “did not undergo any polymorphic changes”. Also, in data set [1] (−20° C., 10 months), the “Individual Impurity (RRT/%) RRT = 0.33” value turned out to be 0.06%, the “Individual Impurity (RRT/%) RRT = 1.50” value is on record as 0.04%, the “Purity (by HPLC %)” value came to 99.90% and the XRPD entry is reported as “Form A”. For the same compound, in the data set on microglia, the 7-day clearance rate worked out at 72.6%, the 14-day clearance rate is 75.1%, the “7-day number of cells” value is reported as “(1337)” and the “14-day number of cells” value is given as “(922)”. In data set [2] (2 days), the Description result is “White to off-white” and the XRPD results is reported as “Form A”. Besides, the “Stability / conversion of crystal form on drying” value (from here on “Stability / conversion”) in data set [2] is listed as “remain stable”.
`COc1ncc(F)cc1CNc1ccc(Cc2c[nH]c3ncc(C)cc23)c(F)n1` [Form B, 6-Fluoro-N-((5-fluoro-2-methoxypyridin-3-yl)methyl)-5-((5-methyl-1H-pyrrolo[2,3-b]pyridin-3-yl)methyl) pyridin-2-amine]: in data set [1] (40° C./75% RH, 5 Days), the “Individual Impurity (RRT/%) RRT = 1.04” value stood at 0.05%, the “Individual Impurity (RRT/%) RRT = 1.29” value is recorded as 0.03%, the “Purity (by HPLC %)” value was 99.92% and the XRPD entry was “Form B”. Further, in data set [1] (40° C./75% RH, 10 Days), the “Individual Impurity (RRT/%) RRT = 1.04” value came out at 0.05%, the “Individual Impurity (RRT/%) RRT = 1.29” value came to 0.03%, the “Purity (by HPLC %)” value is recorded as 99.92% and the XRPD entry was “Form B”. Further, in data set [1] (Initial, 0 Day), the “Individual Impurity (RRT/%) RRT = 1.04” value is reported as 0.05%, the “Individual Impurity (RRT/%) RRT = 1.29” value came out at 0.03%, the “Purity (by HPLC %)” value turned out to be 99.92% and the XRPD entry is listed as “Form B”. For the same compound, the “Polymorphic changes on storage (XRPD)” value in data set [1] was “did not undergo any polymorphic changes”. Further, in data set [1] (−20° C., 10 months), the “Individual Impurity (RRT/%) RRT = 1.04” value is listed as 0.05%, the “Individual Impurity (RRT/%) RRT = 1.29” value stood at 0.03%, the “Purity (by HPLC %)” value came to 99.92% and the XRPD result is recorded as “Form B”. In addition, in the data set with microglia, the “Microglia clearance rate compared with Form A” value was “better than Form A”, the 7-day clearance rate is listed as 87%, the 14-day clearance rate is 90% and the “7-day number of cells” value is on record as “(482)”. Also, the “14-day number of cells” value in the data set on microglia was “(377)”. In addition, the “Microglia clearance rate compared with Form A” value in the data set with microglia (listed as crystal form B) was “better clearance rate of microglia cells at 7 or 14 days compared to crystal form A; also recorded: higher rate of microglia cell clearance at 7 days or 14 days”. In data set [3], the Pharmacokinetic performance result is on record as “better pharmacokinetic performance”. Besides, in data set [2] (3 days), the Description entry is reported as “White to off-white” and the XRPD results is listed as “Form B”. For the same compound, in data set [2], the “Stability / conversion” value is listed as “remain stable”.
Take `COc1ncc(F)cc1CNc1ccc(Cc2c[nH]c3ncc(C)cc23)c(F)n1` [Form C, 6-Fluoro-N-((5-fluoro-2-methoxypyridin-3-yl)methyl)-5-((5-methyl-1H-pyrrolo[2,3-b]pyridin-3-yl)methyl) pyridin-2-amine]: in data set [2] (24 hours), the Description result is “White to off-white” and the XRPD results is recorded as “Form A”. Also, the “Stability / conversion” value in data set [2] is listed as “converted to Form A”.
For `COc1ncc(F)cc1CNc1ccc(Cc2c[nH]c3ncc(C)cc23)c(F)n1` [Form D, 6-Fluoro-N-((5-fluoro-2-methoxypyridin-3-yl)methyl)-5-((5-methyl-1H-pyrrolo[2,3-b]pyridin-3-yl)methyl) pyridin-2-amine], in data set [2] (24 hours), the Description result is listed as “White to off-white” and the XRPD results is on record as “Form A”. In addition, the “Stability / conversion” value in data set [2] is “converting it to Form A”.
For `COc1ncc(F)cc1CNc1ccc(Cc2c[nH]c3ncc(C)cc23)c(F)n1` [Form E, 6-Fluoro-N-((5-fluoro-2-methoxypyridin-3-yl)methyl)-5-((5-methyl-1H-pyrrolo[2,3-b]pyridin-3-yl)methyl) pyridin-2-amine], in data set [2] (24 hours), the Description result was “White to off-white” and the XRPD results is on record as “Form A + B”.
The matching figures for `COc1ncc(F)cc1CNc1ccc(Cc2c[nH]c3ncc(C)cc23)c(F)n1` [Form F, 6-Fluoro-N-((5-fluoro-2-methoxypyridin-3-yl)methyl)-5-((5-methyl-1H-pyrrolo[2,3-b]pyridin-3-yl)methyl) pyridin-2-amine]: “White to off-white” and “Form A + B”.
